From patent publication US4139531A, “1-Nitro-9-alkylaminoalkylaminoacridines and salts thereof” (Politechnika Gdanska, priority 1976, dated 1979)
Several values for one entry are separate records, joined by “and”; a condition that tells them apart may be missing. Equal values may be shown once.

Assays:
[1] = tested on: Crocker mice sarcoma (Sa-180); assay: Growth inhibition of the Crocker mice sarcoma (Sa-180); type: in vivo; conditions: dosage of 0.2 mg/kg, intraperitoneally, dihydrochloride
Procedure: The growth inhibition of the Crocker mice sarcoma (Sa-180).
For this investigation, mice of about three months in age and a weight of about 25 g were used. These animals were inoculated with a section of the neoplasm (Sa-180) and were divided into groups: the first of control - 10 mice; and two to four groups of "under treatment" ones (seven mice each).
The compounds investigated were administered intraperitoneally in appropriate doses, after previous determination of the maximum tolerance dosage.
A criterion of the evaluation the anti-neoplastic activity of the compounds tested was accepted wherein the percent difference between mean weights of the nodules (tumours) of control mice and of those which received the preparations, taking into account the toxic effects.

central nervous system = type: in vivo, mice
rabbits and cats = assay: Arterial blood pressure, respiratory function, electrocardiogram and lethal dosage in rabbits and cats; type: in vivo
[2] = Acute toxicity, LD50, rat; conditions: in vivo, observations over 72 hours
Procedure: (§1) The biological activity analysis was supported by detailed pharmacologic examinations. After observations made over 72 hours, it was determined that the LD50 -value for the preparation C-846 for mice and rats (in mg/kg), was as follows: […]

[3] = tested on: isolated small intestine of rat; assay: Spasmolytic activity, isolated small intestine of rat; conditions: concentration of 10^-5
rats = assay: Reproduction and offspring development in rats; type: in vivo
[4] = Acute toxicity, LD50, mouse; conditions: in vivo, observations over 72 hours
Procedure: as §1

[5] = Maximum tolerance dosage (MTD), rat; conditions: in vivo
Procedure: (§2) Moreover, the maximum tolerance dosage (MTD) for mice and rats was determined (in mg/kg), as follows: […]

rats and rabbits = assay: Prolonged (three-month) toxicity investigations on rats and rabbits; type: in vivo
Procedure: Prolonged investigations were carried out on rats and rabbits during the whole three-month-exposition period of time, introducing dosages corresponding to 1/150, 1/100 and 1/50 of the LD50 -value. This last dosage was a dosage which was maximally tolerated during this period of time.

[6] = tested on: small intestine; muscular coat of the urinary bladder; assay: Spasmolytic activity in vivo, small intestine and urinary bladder of rabbit and cat; conditions: intravenous, dosages of more than 5 mg/kg
[7] = Maximum tolerance dosage (MTD), mouse; conditions: in vivo
Procedure: as §2

Local irritating action = type: in vivo
[8] = tested on: isolated small intestine of guinea-pig; assay: Spasmolytic activity, isolated small intestine of guinea-pig; conditions: concentration 5 × 10^-6
[9] = large dosages, more than 8 mg/kg
[10] = rabbits and cats, intraperitoneal, dosages up to 10 mg/kg

Q: Which “inhibition values of Crocker's sarcoma (Sa-180)” value [1] does the source give for CCNCCCNc1c2ccccc2nc2cccc([N+](=O)[O-])c12.Cl.Cl [Example C-845, 1-nitro-9-ethylaminopropylaminoacridine dihydrochloride] here?
A: Its value is 48% and 49% and 57%.

Q: What does the source list for CC(C)NCCCNc1c2ccccc2nc2cccc([N+](=O)[O-])c12.Cl.Cl [Example C-846, 1-nitro-9-isopropylaminopropylaminoacridine dihydrochloride]?
A: influence on spontaneous and forced motor activity (central nervous system; mice, dosages up to 1/10 LD50): did not influence in such dosages in essential manner; influence on the action of hypnotic agents (luminal, chloral hydrate) and of convulsant agents (Cardiazol, strychnine) (central nervous system; mice, dosages up to 1/10 LD50): did not influence; activity on the central nervous system (central nervous system; mouse, in vivo): did not demonstrate any evident and oriented activity; effect on blood pressure (rabbits and cats; intravenous injection, 2 mg/kg): insignificant and transient hypotony; effect on respiration (rabbits and cats; intravenous injection, 2 mg/kg): instinctive acceleration of deepened respiration; PQ segment (rabbits and cats; [9]): prolongation of the PQ segment; QRS-Complex (rabbits and cats; [9]): dilation of the QRS-Complex; changes in electrocardiograms (rabbits and cats; [9]): transient changes in electrocardiograms were noted, due to the disturbances of the atrio-ventricular and intra-ventricular conductivity; effects of the lethal dosages (rabbits and cats; rabbits and cats, about 15 mg/kg, i.v.): permanent hypotony and respiration disturbances or even apnoea; lethal dosages (rabbits and cats; rabbits and cats, i.v.): ~15 mg/kg; effect on the arterial blood pressure (rabbits and cats; [10]): did not have any effect; effect on the respiratory function (rabbits and cats; [10]): did not have any effect; LD50 at 72 h ([2]; iv): 0.95 ± 0.1 mg/kg; LD50 at 72 h ([2]; po): 127 ± 17.8 mg/kg; muscular tension and spontaneous intestine peristalsis (spasmolytic activity) [3]: a decrease was noted in the muscular tension and an atrophy of spontaneous intestine peristalsis; amount of infant animals in the brood (rats): decreased; capacity to conceive or induce conception / ability of females to become pregnant (rats): did not inhibit; macroscopic malformations (rats): no macroscopic malformations were observed; ontogenetic development of infant animals (rats): retarded; LD50 at 72 h ([4]; iv): 2.2 ± 0.1 mg/kg; LD50 at 72 h ([4]; po): 126 ± 24.7 mg/kg; MTD ([5]; iv): 0.63 mg/kg; MTD ([5]; po): 75 mg/kg; blood coagulation time (rats and rabbits; in the third month): a certain prolongation was noted; histology, germinal epithelium / testicles (rats and rabbits; in vivo): some degenerative lesions appeared in a range of the germinal epithelium, in the range of testicles; histology, intestinal epithelium and glandular texture (rats and rabbits; in vivo): a desquamation (desfoliation) of the intestinal epithelium and an atrophy of the glandular texture; histology, lymphatic system (rats and rabbits; in vivo): a decrease in the amount of the reproductive centers was noted, as well as a decrease in the amount of the small lymphocytes; histology, other internal organs (rats and rabbits; in vivo): did not show any other microscopic changes; histology, spermatogenesis (rats and rabbits; in vivo): some disturbances in spermatogenesis, a decrease in the amount of sperm cells; activity of the acid phosphatase (rats and rabbits; only after the highest dosages, prolonged time of exposition): increase in activity of the acid phosphatase was observed; hepatic functional tests (AlAt, AspAt, acid and alkaline phosphatases, thymol turbidity test) (rats and rabbits; rats and rabbits, three months): did not show an occurrence of any pathologic lesions; influence on the peripheral blood or medular hematopoietic system (rats and rabbits; rats and rabbits, three months): could not be proved, that the preparation had influence; renal tests (creatinine clearance, glomerular filterability) (rats and rabbits; rats and rabbits, three months): did not show any deviation from the norm; dosage maximally tolerated during three months (rats and rabbits; rats and rabbits, three-month exposition): 1/50; spasmolytic activity regarding the small intestine and the muscular coat of the urinary bladder [6]: such an activity; MTD ([7]; iv): 1.85 mg/kg; MTD ([7]; po): 27.2 mg/kg; local irritating action (Local irritating action; concentrations of from 0.05 to 1.0%): exerted a local irritating action; local changes caused by the intravenous injection (Local irritating action; phosphate buffer solution at pH 7 as solvent): could be eliminated; muscular tension and spontaneous intestine peristalsis (spasmolytic activity) [8]: a decrease was noted in the muscular tension and an atrophy of spontaneous intestine peristalsis
